Data on eleven compounds can be found in publication PMC12551014 (Journal of Enzyme Inhibition and Medicinal Chemistry, 2025).

Molecules are shown by their SMILES.

The target of one data set is T1, human sEH (Homo sapiens, UniProt P34913).
T1 sequence (P34913 1-555): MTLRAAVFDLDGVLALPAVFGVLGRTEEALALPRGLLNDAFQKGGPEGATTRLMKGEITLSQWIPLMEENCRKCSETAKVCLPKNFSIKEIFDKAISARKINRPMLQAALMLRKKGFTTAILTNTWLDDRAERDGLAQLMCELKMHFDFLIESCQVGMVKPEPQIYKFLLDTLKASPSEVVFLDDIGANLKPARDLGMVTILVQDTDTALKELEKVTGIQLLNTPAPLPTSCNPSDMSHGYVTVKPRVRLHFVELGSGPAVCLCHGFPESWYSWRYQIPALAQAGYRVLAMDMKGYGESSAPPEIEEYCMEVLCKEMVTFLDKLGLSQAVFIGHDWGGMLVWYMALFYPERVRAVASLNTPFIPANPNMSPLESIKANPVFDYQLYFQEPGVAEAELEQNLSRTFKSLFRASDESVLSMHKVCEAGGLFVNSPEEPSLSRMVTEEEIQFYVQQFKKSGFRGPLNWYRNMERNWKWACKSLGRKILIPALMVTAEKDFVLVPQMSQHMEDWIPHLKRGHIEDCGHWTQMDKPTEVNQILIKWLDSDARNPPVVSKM
In words: Enzymatic sEH activity assay. In kind it is biochemical.

In the next data set the target is T2, murine sEH (Mus musculus, UniProt P34914).
T2 sequence (P34914 1-554): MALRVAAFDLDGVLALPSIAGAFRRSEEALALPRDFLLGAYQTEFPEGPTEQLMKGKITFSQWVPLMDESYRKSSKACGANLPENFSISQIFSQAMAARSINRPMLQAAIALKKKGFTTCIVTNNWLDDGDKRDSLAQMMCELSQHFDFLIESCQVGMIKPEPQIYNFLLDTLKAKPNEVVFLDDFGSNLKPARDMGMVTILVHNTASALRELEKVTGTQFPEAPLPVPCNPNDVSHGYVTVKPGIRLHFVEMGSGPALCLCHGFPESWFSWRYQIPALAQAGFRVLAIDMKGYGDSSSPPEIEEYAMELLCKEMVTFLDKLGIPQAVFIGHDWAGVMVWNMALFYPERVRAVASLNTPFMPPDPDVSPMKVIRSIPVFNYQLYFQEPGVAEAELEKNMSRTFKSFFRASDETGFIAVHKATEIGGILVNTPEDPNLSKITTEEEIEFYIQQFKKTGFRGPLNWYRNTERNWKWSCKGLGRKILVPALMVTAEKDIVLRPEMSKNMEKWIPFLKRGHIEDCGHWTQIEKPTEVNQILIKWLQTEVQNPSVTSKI
In words: Enzymatic sEH activity assay. In kind it is biochemical.

Data set [1] is described as follows: Microsomal stability, human. In kind it is in vitro ADME. To be noted: after 60 min, pooled human microsomes, NADPH, 37 °C.
Data set [2] can be described thus: Microsomal stability, mouse. The format is in vitro ADME. To be noted: after 60 min, pooled mouse microsomes, NADPH, 37 °C.
For another data set, the target named is CYP2C9 (Homo sapiens, UniProt P11712). Kind of data set: Cytochrome P450 inhibition assay, CYP2C9. The format is biochemical. Particulars: probe 7-methoxy-4-(trifluoromethyl)coumarin.
CYP2C9, sequence (P11712 whole entry): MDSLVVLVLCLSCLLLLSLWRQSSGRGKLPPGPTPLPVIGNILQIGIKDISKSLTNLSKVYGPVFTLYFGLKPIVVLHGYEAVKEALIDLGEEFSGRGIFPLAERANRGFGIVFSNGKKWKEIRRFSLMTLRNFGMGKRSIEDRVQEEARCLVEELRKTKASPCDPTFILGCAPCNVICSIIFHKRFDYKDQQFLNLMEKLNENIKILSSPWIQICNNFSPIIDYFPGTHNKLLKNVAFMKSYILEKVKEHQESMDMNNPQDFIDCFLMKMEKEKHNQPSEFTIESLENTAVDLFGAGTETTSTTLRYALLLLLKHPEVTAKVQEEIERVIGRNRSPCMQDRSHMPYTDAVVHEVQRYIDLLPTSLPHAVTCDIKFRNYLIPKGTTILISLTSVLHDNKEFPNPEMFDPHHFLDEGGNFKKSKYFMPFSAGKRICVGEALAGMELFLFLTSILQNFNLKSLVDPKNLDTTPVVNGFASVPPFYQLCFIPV
The next data set deals with CYP2D6 (Homo sapiens, UniProt P10635). In words: Cytochrome P450 inhibition assay, CYP2D6. In kind it is biochemical.
CYP2D6, sequence (P10635 whole entry): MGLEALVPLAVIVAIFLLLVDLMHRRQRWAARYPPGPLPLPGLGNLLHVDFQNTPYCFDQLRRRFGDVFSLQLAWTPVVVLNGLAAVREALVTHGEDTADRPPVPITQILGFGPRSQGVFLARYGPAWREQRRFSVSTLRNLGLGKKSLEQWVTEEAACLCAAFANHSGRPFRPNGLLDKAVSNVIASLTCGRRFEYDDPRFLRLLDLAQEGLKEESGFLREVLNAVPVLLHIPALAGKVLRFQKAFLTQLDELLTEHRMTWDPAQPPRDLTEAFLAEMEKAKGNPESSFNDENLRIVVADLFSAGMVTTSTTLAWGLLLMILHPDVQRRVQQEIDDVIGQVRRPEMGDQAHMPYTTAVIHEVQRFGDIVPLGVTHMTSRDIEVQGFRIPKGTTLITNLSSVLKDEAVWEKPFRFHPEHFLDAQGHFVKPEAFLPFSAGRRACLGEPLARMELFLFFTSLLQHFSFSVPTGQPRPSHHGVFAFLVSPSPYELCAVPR
A further data set concerns the target CYP3A4 (Homo sapiens, UniProt P08684). Kind of data set: Cytochrome P450 inhibition assay, CYP3A4. The format is biochemical. Particulars: probe dibenzylfluorescein (DBF).
The conditions of data set [3]: predicted BBB permeation class.
The target of a further data set is hERG (Homo sapiens, UniProt Q12809). Kind of data set: hERG inhibition assay. The format is cell-based. Particulars: CHO cells transfected with hERG (CHO hERG-Duo cell line).
hERG, sequence (Q12809 whole entry): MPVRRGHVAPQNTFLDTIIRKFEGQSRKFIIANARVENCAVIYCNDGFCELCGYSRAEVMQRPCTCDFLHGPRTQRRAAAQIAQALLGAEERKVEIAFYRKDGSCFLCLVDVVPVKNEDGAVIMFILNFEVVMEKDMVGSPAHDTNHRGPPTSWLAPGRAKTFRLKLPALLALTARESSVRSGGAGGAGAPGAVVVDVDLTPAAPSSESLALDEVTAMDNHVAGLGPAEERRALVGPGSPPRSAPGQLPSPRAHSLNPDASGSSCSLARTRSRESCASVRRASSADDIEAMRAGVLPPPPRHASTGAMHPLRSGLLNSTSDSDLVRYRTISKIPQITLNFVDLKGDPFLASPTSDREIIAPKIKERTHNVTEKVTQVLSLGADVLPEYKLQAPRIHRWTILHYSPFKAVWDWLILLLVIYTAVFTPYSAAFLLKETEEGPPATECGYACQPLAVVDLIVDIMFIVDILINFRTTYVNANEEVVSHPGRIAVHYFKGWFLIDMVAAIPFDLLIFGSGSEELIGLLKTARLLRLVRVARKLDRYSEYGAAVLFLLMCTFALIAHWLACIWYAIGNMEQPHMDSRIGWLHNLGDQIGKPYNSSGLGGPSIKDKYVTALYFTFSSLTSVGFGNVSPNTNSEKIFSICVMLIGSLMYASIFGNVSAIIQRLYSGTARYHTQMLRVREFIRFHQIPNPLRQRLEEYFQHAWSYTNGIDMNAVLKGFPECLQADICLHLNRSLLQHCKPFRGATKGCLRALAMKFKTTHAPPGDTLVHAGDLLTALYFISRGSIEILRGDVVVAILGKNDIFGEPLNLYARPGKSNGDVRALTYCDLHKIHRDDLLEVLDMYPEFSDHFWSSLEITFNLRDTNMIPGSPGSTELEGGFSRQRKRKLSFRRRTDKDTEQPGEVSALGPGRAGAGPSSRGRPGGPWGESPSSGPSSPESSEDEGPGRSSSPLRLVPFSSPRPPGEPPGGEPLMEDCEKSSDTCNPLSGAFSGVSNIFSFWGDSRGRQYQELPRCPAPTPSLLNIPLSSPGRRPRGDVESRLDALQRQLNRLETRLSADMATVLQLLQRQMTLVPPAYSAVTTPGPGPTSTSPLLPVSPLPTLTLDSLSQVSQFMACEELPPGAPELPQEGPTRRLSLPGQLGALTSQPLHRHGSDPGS
Another data set deals with SH-SY5Y cells. Kind of data set: Cytotoxicity in SH-SY5Y cells. To be noted: 100 µM, MTT and PI assays. In kind it is cell-based, human.
The target of data set [4] is T3, human soluble epoxide hydrolase (hsEH) (Homo sapiens, UniProt P34913).
T3 sequence (P34913 1-555): T1 sequence (P34913 1-555)
Kind of data set: sEH immunoblotting in HEK293 cells. In kind it is cell-based. Particulars: HEK293, 4 h treatment, 10-fold titration 10 nM to 10 µM.

The nature of data set [5]: Pharmacokinetic study in plasma and brain, subcutaneous. Particulars: for AUC: male CD1 mice, 5 mg/kg single dose s.c. The format is in vivo, male CD1 mice.
Data set [6] relates to paclitaxel-induced tactile allodynia. Kind of data set: Paclitaxel-induced neuropathic pain, mechanical allodynia. In kind it is in vivo, female WT-CD1 mice.
Setting [7] is: male, CD1, mouse, plasma, sc, 5 mg/kg.

CYP3A4, sequence (P08684 whole entry): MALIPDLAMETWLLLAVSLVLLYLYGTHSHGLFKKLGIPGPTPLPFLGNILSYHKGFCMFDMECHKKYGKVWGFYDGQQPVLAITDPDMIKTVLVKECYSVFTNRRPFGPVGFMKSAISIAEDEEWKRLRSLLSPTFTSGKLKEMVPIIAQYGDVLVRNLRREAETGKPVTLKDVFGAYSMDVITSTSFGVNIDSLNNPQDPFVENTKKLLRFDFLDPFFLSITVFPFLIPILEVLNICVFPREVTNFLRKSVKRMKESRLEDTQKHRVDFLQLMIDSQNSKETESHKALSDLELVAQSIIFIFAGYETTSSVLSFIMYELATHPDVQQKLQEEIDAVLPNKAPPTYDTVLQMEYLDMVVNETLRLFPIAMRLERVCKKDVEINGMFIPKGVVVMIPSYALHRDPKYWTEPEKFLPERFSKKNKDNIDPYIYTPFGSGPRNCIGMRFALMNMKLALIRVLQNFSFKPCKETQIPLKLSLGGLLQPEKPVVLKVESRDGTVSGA

Turning to `COc1cc2c(cc1OC)C1CC3(C)CC2CC(NC(=O)NC2CCN(C(C)=O)CC2)(C1)C3` [Compound 19, 1-(1-Acetylpiperidin-4-yl)-3–(2,3-dimethoxy-9-methyl-5,6,8,9,10,11-hexahydro-7H-5,9:7,11-dimethanobenzo[9]annulen-7-yl)urea], the figures for the IC50 on human sEH and against murine sEH were 1.3 nM and 2.2 nM, respectively. Moreover, in data set [1], the “Microsomal stability Human, percentage of remaining compound” value is 100%. In [2], the “Microsomal stability Mouse, percentage of remaining compound” value is 70%. For the same compound, the inhibition at 10 µM against CYP2C9 stood at 8 ± 1%; on CYP2D6, 2 ± 2%; on CYP3A4, 15 ± 4%.
On to `CC(=O)N1CCC(NC(=O)NC23CC4CC(C)(CC(C2)c2c(F)cccc24)C3)CC1` (stereo not drawn) [Compound 13, 1-(1-Acetylpiperidin-4-yl)-3–(1-fluoro-9-methyl-5,6,8,9,10,11-hexahydro-7H-5,9:7,11-dimethanobenzo[9]annulen-7-yl)urea], for which the midpoint of inhibition against murine sEH, the IC50, lay at 0.8 nM. For the same compound, the “Microsomal stability Human, percentage of remaining compound” value in data set [1] came out at 16%. Moreover, the “Microsomal stability Mouse, percentage of remaining compound” value in data set [2] is on record as 1%. The inhibition at 10 µM at CYP2C9 was determined as 6 ± 3%; against CYP2D6 it was 1 ± 2%; on CYP3A4, 9 ± 3%. Besides, in data set [3], the PAMPA-BBB result was “CNS +”.
As for `COc1cc2c(cc1OC)C1CC3(F)CC2CC(NC(=O)NC2CCN(C(=O)C4CCOCC4)CC2)(C1)C3` [Compound 21, 1-(9-Fluoro-2,3-dimethoxy-5,6,8,9,10,11-hexahydro-7H-5,9:7,11-dimethanobenzo[9]annulen-7-yl)-3–(1-(tetrahydro-2H-pyran-4-carbonyl)piperidin-4-yl)urea], the half-inhibitory concentration (IC50) on murine sEH was 2.9 nM. Also, the “Microsomal stability Human, percentage of remaining compound” value in [1] is given as 100%. The “Microsomal stability Mouse, percentage of remaining compound” value in data set [2] was 86%. In addition, the values for the inhibition at 10 µM against CYP2C9, at CYP2D6 and against CYP3A4 were 8 ± 1%, 15 ± 4% and 1 ± 1%, respectively. The inhibition at 30 min, 10 µM at hERG turned out to be 9 ± 1%. In the data set on SH-SY5Y cells, the “Cytotoxicity at the highest concentration tested” value is “not cytotoxic”. In addition, the “hsEH protein levels (degradation)” value in data set [4] is listed as “No significant degradation was observed”. In addition, the “Compound level in brain samples” value in [5] (5 mg/kg s.c., multiple time points 0.08–18 h) was “undetectable in all brain samples”. Besides, the peak level in data set [5] (setting [7]) (Cmax) was 1600 ng/mL. Also, the Tmax in [5] (setting [7]) came out at 2 h. In addition, the AUC in [5] (male, CD1, mouse, plasma, sc, 5 mg/kg, AUC^inf) is 5600 ng·h/mL; in [5] (male, CD1, mouse, plasma, sc, 5 mg/kg, AUC^last) it was 5500 ng·h/mL. For the same compound, the “Prevention of development of paclitaxel-induced neuropathic pain” value in data set [6] (5 mg/kg s.c. 30 min before each paclitaxel dose, tested at 10, 14, 21 days) was “showed no signs of sensory hypersensitivity at any time point tested”. For the same compound, in [6] (s.c., paclitaxel-treated mice), the “Dose achieving full / maximum antiallodynic effect” value is 5 mg/kg. Moreover, the “Time of peak / maximum antiallodynic effect after administration” value in [6] (s.c., paclitaxel-treated mice) came out at 90 min. For the same compound, the PAMPA-BBB result in data set [3] is listed as “CNS −”.
Consider `CC(=O)c1ccc2c(c1)C1CC3(C)CC2CC(NC(=O)NC2CCN(C(C)=O)CC2)(C1)C3` (stereo not drawn) [Compound 16, 1-(2-Acetyl-9-methyl-5,6,8,9,10,11-hexahydro-7H-5,9:7,11-dimethanobenzo[9]annulen-7-yl)-3–(1-acetylpiperidin-4-yl)urea], for which the IC50 at human sEH is 4.1 nM; on murine sEH it was 6.7 nM. Further, the “Microsomal stability Human, percentage of remaining compound” value in data set [1] came out at 92%. The “Microsomal stability Mouse, percentage of remaining compound” value in data set [2] is recorded as 70%. Also, the inhibition at 10 µM came out at 9 ± 3% against CYP2C9, 7 ± 2% against CYP2D6 and 3 ± 2% on CYP3A4.
As for `C#CCOc1ccccc1CCCCCC(=O)NS(C)(=O)=O` [MS-PPOH, N-methanesulfonyl-6–(2-proparyloxyphenyl)hexanamide, reference compound], the “Effect on paclitaxel-induced tactile allodynia (alone)” value in [6] (20 mg/kg s.c., day 10 after paclitaxel) was “did not alter paclitaxel-induced tactile allodynia”. Moreover, the “Effect of MS-PPOH on the antiallodynic effect of 21” value in data set [6] (MS-PPOH 20 mg/kg s.c. 5 min before 21 5 mg/kg s.c., measured at 90 min) is recorded as “fully abolished the effect of compound 21”.
In turn, `CC(=O)N1CCC(NC(=O)NC23CC4CC(C)(CC(C2)c2cc(F)ccc24)C3)CC1` (stereo not drawn) [Compound 14, 1-(1-Acetylpiperidin-4-yl)-3–(2-fluoro-9-methyl-5,6,8,9,10,11-hexahydro-7H-5,9:7,11-dimethanobenzo[9]annulen-7-yl)urea] gave an IC50 against murine sEH of 0.6 nM. The “Microsomal stability Human, percentage of remaining compound” value in data set [1] stood at 22%. Moreover, the “Microsomal stability Mouse, percentage of remaining compound” value in [2] turned out to be 4%. Also, the results for the inhibition at 10 µM on CYP2C9, at CYP2D6 and on CYP3A4 were 12 ± 2%, 5 ± 2% and 13 ± 3%, respectively. Moreover, the PAMPA-BBB result in [3] is reported as “CNS +”.
Turning to `COc1ccc2c(c1)C1CC3(C)CC2CC(NC(=O)NC2CCN(C(C)=O)CC2)(C1)C3` (stereo not drawn) [Compound 15, 1-(1-Acetylpiperidin-4-yl)-3–(2-methoxy-9-methyl-5,6,8,9,10,11-hexahydro-7H-5,9:7,11-dimethanobenzo[9]annulen-7-yl)urea], half-maximal inhibition on murine sEH (IC50) was put at 1.7 nM. For the same compound, the “Microsomal stability Human, percentage of remaining compound” value in data set [1] is on record as 33%. Moreover, the “Microsomal stability Mouse, percentage of remaining compound” value in data set [2] was found to be 32%. The inhibition at 10 µM is 12 ± 3% on CYP2C9, 8 ± 2% against CYP2D6 and 12 ± 4% at CYP3A4.
With `NCC1(CC(=O)O)CCCCC1` [gabapentin, reference compound], the “Dose achieving full / maximum antiallodynic effect” value in data set [6] (s.c., paclitaxel-treated mice) was 20 mg/kg.
On to `COc1cc2c(cc1OC)C1CC3(C)CC2CC(NC(=O)NC2CCN(C(=O)C4CCOCC4)CC2)(C1)C3` [Compound 20, 1-(2,3-Dimethoxy-9-methyl-5,6,8,9,10,11-hexahydro-7H-5,9:7,11-dimethanobenzo[9]annulen-7-yl)-3–(1-(tetrahydro-2H-pyran-4-carbonyl)piperidin-4-yl)urea], for which the results for the IC50 against human sEH and on murine sEH were 0.4 nM and 1.9 nM, respectively. In data set [1], the “Microsomal stability Human, percentage of remaining compound” value came out at 80%. In addition, the “Microsomal stability Mouse, percentage of remaining compound” value in data set [2] is on record as 96%. Moreover, the inhibition at 10 µM on CYP2C9 amounted to 22 ± 2%; on CYP2D6, 36 ± 5%; on CYP3A4, 43 ± 1%. The compound further had an inhibition at 30 min, 10 µM against hERG of 11 ± 2%.
With `CC(=O)N1CCC(NC(=O)NC23CC4CC(C)(CC(C2)c2cc([N+](=O)[O-])ccc24)C3)CC1` (stereo not drawn) [Compound 17, 1-(1-Acetylpiperidin-4-yl)-3–(9-methyl-2-nitro-5,6,8,9,10,11-hexahydro-7H-5,9:7,11-dimethanobenzo[9]annulen-7-yl)urea], the IC50 on human sEH and at murine sEH was 4.5 nM throughout. Besides, the “Microsomal stability Human, percentage of remaining compound” value in data set [1] came to 100%. Further, the “Microsomal stability Mouse, percentage of remaining compound” value in data set [2] amounted to 27%. In addition, the figures for the inhibition at 10 µM on CYP2C9, against CYP2D6 and against CYP3A4 were 20 ± 4%, 8 ± 3% and 10 ± 1%, respectively.
Take `CC(=O)N1CCC(NC(=O)NC23CC4CC(C)(CC(C2)c2cc(N)ccc24)C3)CC1` (stereo not drawn) [Compound 18, 1-(1-Acetylpiperidin-4-yl)-3–(2-amino-9-methyl-5,6,8,9,10,11-hexahydro-7H-5,9:7,11-dimethanobenzo[9]annulen-7-yl)urea]: the results for the IC50 against human sEH and against murine sEH were 25 nM and 17.1 nM, respectively.
